Results reported in patent US8492537B2, “Nucleosides for suppressing or reducing the development of resistance in cytostatic therapy” (RESprotect GmbH, priority 2006, dated 2013).

| SMILES | melting point |
| --- | --- |
| CC(C)[C@H](NC(=O)OC(C)(C)C)C(=O)OC[C@H]1O[C@@H](n2cc(/C=C/Br)c(=O)[nH]c2=O)C[C@@H]1Cl [1.2.2.5, 5′-O—(N-t-butyloxycarbonyl-L-valinoyl)-3′-chloro-2′,3′-dideoxy-5-(E)-bromovinyluridine] | 75 to 76 °C |
| CC(C)[C@H](NC(=O)OC(C)(C)C)C(=O)N[C@H](C(=O)OC[C@H]1O[C@@H](n2cc(/C=C/Br)c(=O)[nH]c2=O)C[C@@H]1Cl)C(C)C [1.2.2.7, 5′-O—(N-t-butyloxycarbonyl-L-valyl-L-valinoyl)-3′-chloro-2′,3′-dideoxy-5-(E)-bromovinyluridine] | 102 to 103 °C |
| CC(C)[C@H](NC(=O)OC(C)(C)C)C(=O)N[C@H](C(=O)OC[C@H]1O[C@@H](n2cc(/C=C/Br)c(=O)[nH]c2=O)C[C@@H]1N=[N+]=[N-])C(C)C [1.2.2.9, 3′-azido-5′-O—(N-t-butyloxycarbonyl-L-valyl-L-valinoyl)-2′,3′-dideoxy-5-(E)-bromovinyluridine] | 95 to 97 °C |
| CC(=O)N[C@H]1C[C@H](n2cc(/C=C/Br)c(=O)[nH]c2=O)O[C@@H]1CBr [1.4.2, 3′-acetamido-5′-bromo-2′,3′,5′-trideoxy-5-(E)-bromovinyluridine] | 178 to 180 °C |
| O=c1[nH]c(=O)n([C@H]2C[C@H](O)[C@@H](CF)O2)cc1/C=C/Br [2.1.1, 2′,5′-dideoxy-5′-fluoro-5-(E)-bromovinyluridine] | 208 °C |
| CO[C@H]1C[C@H](n2cc(/C=C/Br)c(=O)[nH]c2=O)O[C@@H]1CCl [2.1.2, 3′-O-methyl-5′-chloro-2′,5′-dideoxy-5-(E)-bromovinyluridine] | 145 °C |
| CO[C@H]1C[C@H](n2cc(/C=C/Br)c(=O)n(C)c2=O)O[C@@H]1CF [2.1.3, 3′-O-methyl-5′-fluoro-2′,5′-dideoxy-3-methyl-5-(E)-bromovinyluridine] | 95 °C |
| CO[C@H]1C[C@H](n2cc(/C=C/Br)c(=O)[nH]c2=O)O[C@@H]1CF [2.1.4, 3′-O-methyl-5′-fluoro-2′,5′-dideoxy-5-(E)-bromovinyluridine] | 177 °C |
| CC(=O)O[C@H]1C[C@H](n2cc(/C=C/Br)c(=O)[nH]c2=O)O[C@@H]1C(O)F (stereo partly shown) [2.2.1, 3′-O-acetyl-5′-fluoro-2′-deoxy-5-(E)-bromovinyluridine] | 81 °C |
| CCCCOC(=O)N[C@H](C(=O)O[C@H]1C[C@H](n2cc(/C=C/Br)c(=O)[nH]c2=O)O[C@@H]1CCl)C(C)C [2.2.2.5, 3′-O—(N-4-butyloxycarbonyl-L-valinoyl)-5′-chloro-2′,5′-dideoxy-5-(E)-bromovinyluridine] | 87 to 88 °C |
| CC(C)[C@H](NC(=O)OC(C)(C)C)C(=O)N[C@H](C(=O)O[C@H]1C[C@H](n2cc(/C=C/Br)c(=O)[nH]c2=O)O[C@@H]1CCl)C(C)C [2.2.2.7, 3′-O—(N-t-butyloxycarbonyl-L-valyl-L-valinoyl)-5′-chloro-2′,5′-dideoxy-5-(E)-bromovinyluridine] | 114 to 116 °C |
| CC(C)[C@H](NC(=O)OC(C)(C)C)C(=O)N[C@H](C(=O)O[C@H]1C[C@H](n2cc(/C=C/Br)c(=O)[nH]c2=O)O[C@@H]1CN=[N+]=[N-])C(C)C [2.2.2.9, 5′-azido-3′-O—(N-t-butyloxycarbonyl-L-valyl-L-valinoyl)-2′,5′-dideoxy-5-(E)-bromovinyluridine] | 133 to 135 °C |
| [N-]=[N+]=NC[C@H]1O[C@@H](n2cc(/C=C/Br)c(=O)[nH]c2=O)C[C@@H]1Cl [3.5.3, 5′-azido-3′-chloro-2′,3′,5′-trideoxy-5-(E)-bromovinyluridine] | 58 to 60 °C |
| [N-]=[N+]=N[C@H]1C[C@H](n2cc(/C=C/Br)c(=O)[nH]c2=O)O[C@@H]1CCl [3.5.4, 3′-azido-5′-chloro-2′,3′,5′-trideoxy-5-(E)-bromovinyluridine] | 124 to 125 °C |
| N#CC[C@H]1O[C@@H](n2cc(/C=C/Br)c(=O)[nH]c2=O)C[C@@H]1O [compound 10, 5′-cyano-2′,5′-dideoxy-5-(E)-bromovinyluridine] | 177 °C (dec.) |

The next lines start with the values.

| melting point | SMILES |
| --- | --- |
| 201 °C | O=c1[nH]c(=O)n([C@@H]2O[C@H](CBr)[C@@H](O)[C@H]2O)cc1/C=C/Br [2.3, 5′-bromo-5′-deoxy-5-(E)-bromovinyluridine] |
| 177 to 180 °C | O=c1[nH]c(=O)n([C@H]2C[C@H](F)[C@@H](CF)O2)cc1/C=C/Br [3.1, 3′,5′-difluoro-2′,3′,5′-trideoxy-5-(E)-bromovinyluridine] |
| 203 °C | O=c1[nH]c(=O)n([C@H]2C[C@H](F)[C@@H](CCl)O2)cc1/C=C/Br [3.2, 3′-fluoro-5′-chloro-2′,3′,5′-trideoxy-5-(E)-bromovinyluridine] |
| 184 °C | O=c1[nH]c(=O)n([C@H]2C[C@H](Cl)[C@@H](CCl)O2)cc1/C=C/Br [3.3, 3′,5′-dichloro-2′,3′,5′-trideoxy-5-(E)-bromovinyluridine] |
| 149 °C | O=c1[nH]c(=O)n([C@H]2C[C@H](Cl)[C@@H](CBr)O2)cc1/C=C/Br [3.5, 3′-chloro-5′-bromo-2′,3′,5′-trideoxy-5-(E)-bromovinyluridine] |
| 153 °C | O=c1[nH]c(=O)n([C@H]2C[C@H](Br)[C@@H](CBr)O2)cc1/C=C/Br [3.6, 3′,5′-dibromo-2′,3′,5′-trideoxy-5-(E)-bromovinyluridine] |
| > 250 °C (dec.) | O=c1[nH]c(=O)n([C@H]2C=C[C@@H](CO)O2)cc1/C=C/Br [4.1, 2′,3′-didehydro-2′,3′-dideoxy-5-(E)-bromovinyluridine] |
| > 150 °C | O=c1[nH]c(=O)n([C@H]2C=C[C@@H](CBr)O2)cc1/C=C/Br [4.2, 2′,3′-didehydro-2′,3′,5′-trideoxy-5′-bromo-5-(E)-bromovinyluridine] |
| 182 °C | O=c1[nH]c(=O)n([C@@H]2O[C@H](CO)[C@@H](O)[C@H]2F)cc1/C=C/Br [5.1, 2′-fluoro-2′-deoxy-5-(E)-bromovinyluridine] |
| 223 °C | O=c1[nH]c(=O)n([C@@H]2O[C@H](CBr)[C@@H](O)[C@H]2F)cc1/C=C/Br [5.2, 2′-fluoro-5′-bromo-2′,5′-dideoxy-5-(E)-bromovinyluridine] |
| 174 °C (dec.) | C[C@H]1O[C@@H](n2cc(/C=C/Br)c(=O)[nH]c2=O)C[C@@H]1O [8.1, 2′,5′-dideoxy-5-(E)-bromovinyluridine] |
| 134 °C | C[C@H]1O[C@@H](n2cc(/C=C/Br)c(=O)[nH]c2=O)C[C@@H]1Cl [8.2, 3′-chloro-2′,3′,5′-trideoxy-5-(E)-bromovinyluridine] |
| 96 °C | CC(=O)O[C@H]1C[C@H](n2cc(/C=C/Br)c(=O)[nH]c2=O)O[C@@H]1CC#N [10.3, 3′-O-acetyl-5′-cyano-2′,5′-dideoxy-5-(E)-bromovinyluridine] |
